According to patent publication US11242334B2, “Heterocyclic compounds as kinase inhibitors, compositions comprising the heterocyclic compound, and methods of use thereof” (JS INNOPHARM (SHANGHAI) LTD, priority 2017, dated 2022):

Key:
human ERK2 = target: T1, human ERK2 (Homo sapiens, UniProt P28482); experiment: LanthaScreen TR-FRET enzymatic assay, ERK2; details: IC50 values of ERK2 biochemical activity; 5 μM ATP, 400 nM ATF2-GFP substrate
T1 construct: recombinantly expressed as GST-tagged full-length protein purified from E. coli; GST; purchased Invitrogen PV3311; host or cells: E. coli
T1 sequence (P28482 whole entry): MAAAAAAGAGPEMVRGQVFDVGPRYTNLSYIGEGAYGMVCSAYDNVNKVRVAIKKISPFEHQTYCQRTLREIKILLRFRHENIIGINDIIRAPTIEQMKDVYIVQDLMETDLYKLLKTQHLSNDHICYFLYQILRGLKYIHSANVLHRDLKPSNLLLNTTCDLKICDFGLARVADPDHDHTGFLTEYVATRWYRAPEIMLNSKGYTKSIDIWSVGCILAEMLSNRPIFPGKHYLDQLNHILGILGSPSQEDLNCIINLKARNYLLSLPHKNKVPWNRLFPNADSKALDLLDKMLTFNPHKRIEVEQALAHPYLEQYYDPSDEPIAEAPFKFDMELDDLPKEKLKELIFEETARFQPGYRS
Protocol: Compounds were tested in a LanthaScreen™ time-resolved fluorescence energy transfer (TR-FRET) enzymatic assay from Invitrogen. The assay used human ERK2 (Mitogen Activated Kinase 1, Invitrogen, Cat. PV3311) recombinantly expressed as GST-tagged full-length protein purified from E. coli and activated in vitro with MAP2K1. The substrate was a recombinant truncated version (residues 19-96) of ATF2 fused with Green Fluorescent Protein (Invitrogen, Cat. PV4445). Test compounds were prepared and diluted in DMSO in 3-fold serial dilutions to 100× of the final testing concentrations. The compounds were then further diluted to 4× by the kinase reaction buffer (Invitrogen, Cat. PV3189). The enzymatic reaction for compound testing was performed in a white 384-well polypropylene plate (Packard, Cat. 6005214) with a total reaction volume of 10 μl containing 20 ng/ml ERK2, 400 nM substrate, and 5 μM ATP that is around its Km. The assay started with loading 2.5 μl of ERK2 diluted in kinase reaction buffer to wells, followed by addition of equal volume of 4× compounds for 15-min incubation at the room temperature for pre-treatment. The enzymatic reaction was initiated by addition of 5 μl of mixture of the substrate and ATP prepared in kinase reaction buffer. After one hour reaction, 10 μl mixture of EDTA (final 10 mM) and terbium-labeled anti-pATF2 (pThr71) antibody (final 2 nM) (Invitrogen, Cat. PV4451) prepared in TR-FRET antibody dilution buffer (Invitrogen, Cat. PV3574) was added to stop the enzymatic reaction and produce TR-FRET signals. After 30 minutes of incubation at room temperature, the plate was read in Tecan Infinite F200 Pro with the following settings: Excitation 340 nm (30)/Emission1 495 nm (10)/Emission2 520 nm (25). The TR-FRET values were dimensionless numbers that were calculated as the ratio of the acceptor ([…]) signal to the donor (Terbium) signal. Percent of control was calculated as the percentage of compound-treated vs 1% DMSO vehicle-treated. The dose-response curves were generated and the ICsos were calculated by nonlinear sigmoid curve fitting using GraphPad Prism.
The IC50 values of ERK2 biochemical activity for the examples disclosed herein are listed in Table 3, A: ≤10 nM; B: >10 nM and ≤50 nM; C: >50 nM and ≤100 nM; D.>100 nM.

Colo205 cell line = experiment: Colo205 cell proliferation assay (MTT assay, WST-8 readout); type: cell-based; details: Homo sapiens; IC50 values of growth inhibition in Colo 205 cells; 72 hours
Protocol: Compounds disclosed herein were tested for the inhibition of ERK2 by a Colo205 cell proliferation assay commonly known as MTT assay. In this assay, a complete media was prepared by adding 10% fetal bovine serum to RPMI-1640 medium (Life technology). Colon cancer cells (Colo205 cell line) were added to each of 88 wells of a 96 well plate at a seeding density of 5,000 cells/well/90 μL. The cells were allowed to attach to the plate by incubating at 37° C. for 24 hours. The compound was dissolved in DMSO (SIGMA). A solution of test compound was prepared in complete media by serial dilution to obtain the following concentrations: 500 μM, 150 μM, 50 μM, 15 μM, 5 μM, 1.5 μM, 0.5 μM, 0.15 μM and 0.05 μM. The test compound solution (10 μL) was added to each of 80 cell-containing wells. The final concentrations of the compound were following: 50 μM, 15 μM, 5 μM, 1.5 μM, 0.5 μM, 0.15 μM, 0.05 μM, 0.015 μM and 0.005 μM. The final concentration of DMSO is 0.5%. To the 8 remaining cell-containing wells, only complete media (containing 0.5% DMSO) was added to form a control group in order to measure maximal proliferation. To the remaining 8 empty wells, complete media was added to for a vehicle control group in order to measure background. The plates were incubated at 37° C. for 72 hours. 10 μL WST-8 solution (DOJINDO, Cell Counting KIT-8) was added to each well. The plates were further incubated at 37° C. for 2 hours, and then read for the absorbance using a microplate reader at 450 nm.
The IC50 values of growth inhibition in Colo 205 cells for Compounds disclosed are listed in Table 3, A′: ≤0.5 μM; B′: >0.5 μM and ≤1 μM; C′: >1.0 μM and ≤5 uM; D′: >5 μM.

O=c1cc(-c2ccc3[nH]ncc3c2)ccn1[C@H](CO)c1cccc(Cl)c1 [Example 22, (S)-1-(1-(3-chlorophenyl)-2-hydroxyethyl)-4-(1H-indazol-5-yl)pyridin-2(1H)-one]
IC50 (human ERK2): 10 to 50 nM
IC50 (Colo205 cell line): > 5000 nM

CCc1n[nH]c2ccc(-c3ccn([C@H](CO)c4cccc(Cl)c4)c(=O)c3)cc12 [Example 23, (S)-1-(1-(3-chlorophenyl)-2-hydroxyethyl)-4-(3-ethyl-1H-indazol-5-yl)pyridin-2(1H)-one]
IC50 (human ERK2): 50 to 100 nM
IC50 (Colo205 cell line): 1000 to 5000 nM

Cc1cc(-c2n[nH]c3ncc(-c4ccn([C@H](CO)c5ccc(Cl)c(F)c5)c(=O)c4)cc23)ccn1 [Example 24, (S)-1-(1-(4-chloro-3-fluorophenyl)-2-hydroxyethyl)-4-(3-(2-methylpyridin-4-yl)-1H-pyrazolo[3,4-b]pyridin-5-yl)pyridin-2(1H)-one]
IC50 (human ERK2): 50 to 100 nM
IC50 (Colo205 cell line): 1000 to 5000 nM

Cc1cc(-c2n[nH]c3ccc(-c4ccn([C@H](CO)c5cc(F)cc(Br)c5)c(=O)c4)cc23)ccn1 [Example 26, (S)-1-(1-(3-bromo-5-fluorophenyl)-2-hydroxyethyl)-4-(3-(2-methylpyridin-4-yl)-1H-indazol-5-yl)pyridin-2(1H)-one]
IC50 (human ERK2): < 10 nM
IC50 (Colo205 cell line): ≤ 500 nM

O=c1cc(-c2ccc3[nH]nc(N4CCC(O)C4)c3c2)ccn1[C@H](CO)c1cccc(Cl)c1 (stereo partly drawn) [Example 27, 1-((S)-1-(3-chlorophenyl)-2-hydroxyethyl)-4-(3-(3-hydroxypyrrolidin-1-yl)-1H-indazol-5-yl)pyridin-2(1H)-one]
IC50 (human ERK2): < 10 nM
IC50 (Colo205 cell line): 1000 to 5000 nM

Cc1cc(-c2n[nH]c3ccc(-c4ccn([C@H](CO)c5cc(Cl)ccc5F)c(=O)c4)cc23)ccn1 [Example 28, (S)-1-(1-(5-chloro-2-fluorophenyl)-2-hydroxyethyl)-4-(3-(2-methylpyridin-4-yl)-1H-indazol-5-yl)pyridin-2(1H)-one]
IC50 (human ERK2): < 10 nM
IC50 (Colo205 cell line): ≤ 500 nM

Cc1cc(-c2n[nH]c3ccc(-c4cc[nH]c(=O)c4)cc23)ccn1 [Example 29, 4-(3-(2-methylpyridin-4-yl)-1H-indazol-5-yl)pyridin-2(1H)-one]
IC50 (human ERK2): < 10 nM
IC50 (Colo205 cell line): 1000 to 5000 nM

Cc1cc(-c2n[nH]c3ccc(-c4ccn([C@H](CO)c5ccc(F)c(Cl)c5)c(=O)c4)cc23)ccn1 [Example 30, (S)-1-(1-(3-chloro-4-fluorophenyl)-2-hydroxyethyl)-4-(3-(2-methylpyridin-4-yl)-1H-indazol-5-yl)pyridin-2(1H)-one]
IC50 (human ERK2): < 10 nM
IC50 (Colo205 cell line): ≤ 500 nM

Cc1cc(-c2n[nH]c3ccc(-c4ccn([C@@H](CO)c5cccc(Cl)c5)c(=O)c4)cc23)ccn1 [Example 31, (R)-1-(1-(3-chlorophenyl)-2-hydroxyethyl)-4-(3-(2-methylpyridin-4-yl)-1H-indazol-5-yl)pyridin-2(1H)-one]
IC50 (human ERK2): < 10 nM
IC50 (Colo205 cell line): 1000 to 5000 nM

Cc1cc(-c2n[nH]c3ccc(-c4ccn([C@H](CO)c5ccc(Cl)cc5)c(=O)c4)cc23)ccn1 [Example 32, (S)-1-(1-(4-chlorophenyl)-2-hydroxyethyl)-4-(3-(2-methylpyridin-4-yl)-1H-indazol-5-yl)pyridin-2(1H)-one]
IC50 (human ERK2): < 10 nM
IC50 (Colo205 cell line): ≤ 500 nM

Cc1cc(-c2n[nH]c3ccc(-c4ccn([C@H](CO)c5cc(F)cc(C(F)(F)F)c5)c(=O)c4)cc23)ccn1 [Example 33, (S)-1-(1-(3-fluoro-5-(trifluoromethyl)phenyl)-2-hydroxyethyl)-4-(3-(2-methylpyridin-4-yl)-1H-indazol-5-yl)pyridin-2(1H)-one]
IC50 (human ERK2): < 10 nM
IC50 (Colo205 cell line): ≤ 500 nM

CC(C)Oc1ccc(-c2n[nH]c3ccc(-c4ccn([C@H](CO)c5ccc(F)c(Cl)c5)c(=O)c4)cc23)cn1 [Example 34, (S)-1-(1-(3-chloro-4-fluorophenyl)-2-hydroxyethyl)-4-(3-(6-isopropoxypyridin-3-yl)-1H-indazol-5-yl)pyridin-2(1H)-one]
IC50 (human ERK2): 10 to 50 nM
IC50 (Colo205 cell line): 1000 to 5000 nM

Cc1cc(-c2n[nH]c3ccc(-c4ccn([C@H](CO)c5cccc(Cl)c5F)c(=O)c4)cc23)ccn1 [Example 35, (S)-1-(1-(3-chloro-2-fluorophenyl)-2-hydroxyethyl)-4-(3-(2-methylpyridin-4-yl)-1H-indazol-5-yl)pyridin-2(1H)-one]
IC50 (human ERK2): < 10 nM
IC50 (Colo205 cell line): ≤ 500 nM

Cc1cc(-c2n[nH]c3ccc(-c4ccn([C@H](CO)c5ccc(F)c(Br)c5)c(=O)c4)cc23)ccn1 [Example 36, (S)-1-(1-(3-bromo-4-fluorophenyl)-2-hydroxyethyl)-4-(3-(2-methylpyridin-4-yl)-1H-indazol-5-yl)pyridin-2(1H)-one]
IC50 (human ERK2): < 10 nM
IC50 (Colo205 cell line): ≤ 500 nM

Cn1cc(-c2n[nH]c3ccc(-c4ccn([C@H](CO)c5ccc(F)c(Cl)c5)c(=O)c4)cc23)cn1 [Example 37, (S)-1-(1-(3-chloro-4-fluorophenyl)-2-hydroxyethyl)-4-(3-(1-methyl-1H-pyrazol-4-yl)-1H-indazol-5-yl)pyridin-2(1H)-one]
IC50 (human ERK2): < 10 nM
IC50 (Colo205 cell line): ≤ 500 nM

Cn1cc(-c2n[nH]c3ccc(-c4ccn([C@H](CO)c5ccc(Cl)c(F)c5)c(=O)c4)cc23)cn1 [Example 38, (S)-1-(1-(4-chloro-3-fluorophenyl)-2-hydroxyethyl)-4-(3-(1-methyl-1H-pyrazol-4-yl)-1H-indazol-5-yl)pyridin-2(1H)-one]
IC50 (human ERK2): < 10 nM
IC50 (Colo205 cell line): 500 to 1000 nM

Cn1cc(-c2n[nH]c3ccc(-c4ccn([C@H](CO)c5cc(F)cc(Br)c5)c(=O)c4)cc23)cn1 [Example 39, (S)-1-(1-(3-bromo-5-fluorophenyl)-2-hydroxyethyl)-4-(3-(1-methyl-1H-pyrazol-4-yl)-1H-indazol-5-yl)pyridin-2(1H)-one]
IC50 (human ERK2): < 10 nM
IC50 (Colo205 cell line): ≤ 500 nM

CC(C)Oc1ccc(-c2n[nH]c3ccc(-c4ccn([C@H](CO)c5cc(F)cc(Br)c5)c(=O)c4)cc23)cn1 [Example 40, (S)-1-(1-(3-bromo-5-fluorophenyl)-2-hydroxyethyl)-4-(3-(6-isopropoxypyridin-3-yl)-1H-indazol-5-yl)pyridin-2(1H)-one]
IC50 (human ERK2): < 10 nM
IC50 (Colo205 cell line): ≤ 500 nM

Cn1cc(-c2n[nH]c3ccc(-c4ccn([C@H](CO)c5cc(F)cc(C(F)(F)F)c5)c(=O)c4)cc23)cn1 [Example 41, (S)-1-(1-(3-fluoro-5-(trifluoromethyl)phenyl)-2-hydroxyethyl)-4-(3-(1-methyl-1H-pyrazol-4-yl)-1H-indazol-5-yl)pyridin-2(1H)-one]
IC50 (human ERK2): < 10 nM
IC50 (Colo205 cell line): ≤ 500 nM

Cn1cc(-c2n[nH]c3ccc(-c4ccn([C@H](CO)c5cccc(C(F)(F)F)c5)c(=O)c4)cc23)cn1 [Example 42, (S)-1-(2-hydroxy-1-(3-(trifluoromethyl)phenyl)ethyl)-4-(3-(1-methyl-1H-pyrazol-4-yl)-1H-indazol-5-yl)pyridin-2(1H)-one]
IC50 (human ERK2): < 10 nM
IC50 (Colo205 cell line): 500 to 1000 nM

CC(C)Oc1ccc(-c2n[nH]c3ccc(-c4ccn([C@H](CO)c5cccc(C(F)(F)F)c5)c(=O)c4)cc23)cn1 [Example 43, (S)-1-(2-hydroxy-1-(3-(trifluoromethyl)phenyl)ethyl)-4-(3-(6-isopropoxypyridin-3-yl)-1H-indazol-5-yl)pyridin-2(1H)-one]
IC50 (human ERK2): < 10 nM
IC50 (Colo205 cell line): 1000 to 5000 nM
